Data as given in article PMC9463526 (Journal of Pharmaceutical Analysis, 2022).
Where two headings read alike, the source gives them in different places.

How the values were obtained:
[1] = Analyte stability in brain homogenate; assay type: physicochemical, human; conditions: for Freeze-thaw stability, Accuracy / Freeze-thaw stability, Mean concentration / Freeze-thaw stability, Difference: 3 cycles; for Freeze-thaw stability, Difference / Benchtop stability, Difference / Processed sample stability, Difference / Autosampler stability (5 °C), Difference / Long-term stability (−20 °C), Difference: vs freshly processed QC; for Benchtop stability, Accuracy / Benchtop stability, Mean concentration / Benchtop stability, Difference: 6 h; for Processed sample stability, Accuracy / Processed sample stability, Mean concentration / Processed sample stability, Difference: 22 h; for Autosampler stability (5 °C), Accuracy / Autosampler stability (5 °C), Mean concentration / Autosampler stability (5 °C), Difference: 96 h; for Long-term stability (−20 °C), Accuracy / Long-term stability (−20 °C), Mean concentration / Long-term stability (−20 °C), Difference: 39 days
Procedure: (§1) The stability of the analytes was studied under various storage and processing conditions. […] Short- and long-term stability studies of all analytes were conducted in human blank plasma and brain homogenate under several storage conditions. Analyte stability in biological matrices was analyzed using freshly prepared calibration standards and QC samples. The percentage difference between the stability and freshly processed QC was also assessed. Re-injection reproducibility was evaluated within the sample stability period in the autosampler. Analytes were considered stable if the accuracy at each level was ±15.0% of the nominal value. Additionally, the difference from corresponding comparison QC samples must be within ±15.0%.

[2] = Equilibrium dialysis, fraction unbound in brain homogenate; assay type: in vitro ADME, human
Procedure: (§2) Equilibrium dialysis was employed to measure the fraction unbound of analytes in plasma, brain, and brain tumor tissue homogenates using 96-well DispoEquilibrium Dialyzer plates with a 10 kDa cut-off regenerated cellulose membrane. Dialysis was performed using 180 μL of human plasma or tissue homogenate against an equal volume of PBS (pH 7.4) in a dual-plate rotator (Harvard Apparatus, Holliston, MA, USA). Equilibrium time was initially optimized by analyzing samples after 2, 4, 6, 8, 16, and 24 h of dialysis at concentrations of 20 and 200 nM in human plasma and brain homogenate. The dialysates were collected and processed as described in Sections 2.3.2 and 2.3.3. The recovery of analytes was calculated as the ratio of analyte concentration after dialysis (sum of concentrations found in PBS and matrix fractions) to the total concentration to ensure the reliability and reproducibility of the assay. The experiments were repeated at least three times, and each sample in triplicate and average fraction unbound values were determined.
(§3) The fraction unbound in plasma (fu, plasma) and tissue homogenate (fu, hom) was evaluated as the analyte concentration ratio of post-dialysis PBS (cu) to post-dialysis plasma (cp, Eq. (1)) or homogenate (chom, Eq. (2)).(1) fu,plasma =cu/cp (2) fu,hom =cu/chom
The fraction unbound in the actual tissue (fu, tissue) was obtained by incorporating the unbound fraction in the tissue homogenate (fu, hom) and the dilution factor (Df) into Eq. (3).(3) fu,tissue = fu,hom/[Df - (Df - 1)fu,hom]

[3] = Levels in intraoperatively collected CSF of GBM patients; assay type: in vivo; conditions: human, po, five GBM patients, oral LY3214996 200 mg once daily and abemaciclib 150 mg twice daily for 5 days, intraoperative CSF
Procedure: Blank brain and clinical brain tumor tissue homogenates were prepared at 1:9 (m/V) ratio with PBS. The samples were homogenized at a speed of 6.00 m/s for 40 s for three cycles using a Bead Ruptor Elite homogenizer (Omni International, Kennesaw, GA, USA). Plasma was used as a surrogate matrix when preparing calibration curves for brain and brain tumor homogenates and CSF as well as for the PBS fraction after sample dialysis. To minimize matrix differences, all plasma samples were spiked with PBS, while all non-plasma samples were spiked with plasma. Extraction of the analyte and IS was facilitated by protein precipitation using methanol-containing IS precipitation solution. Samples (70 μL) spiked with PBS or plasma were precipitated using 400 μL of IS precipitation solution. After centrifugation at 12,000 r/min for 10 min at 4 °C, the supernatant was transferred for LC-MS/MS analysis.
The validated bioanalytical method was employed to investigate analytes pharmacokinetics in the plasma, brain tumor, and CSF in GBM patients (ClinicalTrials.gov identifier: NCT04391595). The protocol was reviewed and approved by the Institutional Review Board of the Barrow Neurological Institute, St. Joseph's Hospital and Medical Center (Phoenix, AZ, USA). All patients enrolled in the trial provided written informed consent. […] Blood, CSF, and GBM tissue (including gadolinium-contrast enhancing and non-enhancing regions) samples were obtained intra-operatively from each patient on the […] on the planned operation day. Blood was centrifuged at 4 °C and 3,000 r/min for 10 min; plasma was subsequently collected. Brain tumors were resected 7–9 h after the last dose was administered. Once resected, the tissue samples were rinsed with PBS, paper dried, and freshly frozen in liquid nitrogen. The samples were then stored at −80 °C in a freezer for later analysis.

[4] = Analyte stability in human plasma; assay type: physicochemical; conditions: for Freeze-thaw stability, Accuracy / Freeze-thaw stability, Mean concentration / Freeze-thaw stability, Difference: 3 cycles; for Freeze-thaw stability, Difference / Benchtop stability, Difference / Processed sample stability, Difference / Autosampler stability (5 °C), Difference / Long-term stability (−20 °C), Difference: vs freshly processed QC; for Benchtop stability, Accuracy / Benchtop stability, Mean concentration / Benchtop stability, Difference: 19 h; for Processed sample stability, Accuracy / Processed sample stability, Mean concentration / Processed sample stability, Difference: 23 h; for Autosampler stability (5 °C), Accuracy / Autosampler stability (5 °C), Mean concentration / Autosampler stability (5 °C), Difference: 112 h; for Long-term stability (−20 °C), Accuracy / Long-term stability (−20 °C), Mean concentration / Long-term stability (−20 °C), Difference: 27 days
Procedure: as §1

[5] = Equilibrium dialysis, fraction unbound in plasma; assay type: in vitro ADME, human; conditions: pH 7.4, 16 h equilibrium dialysis
Procedure: as §2, §3
Unbound drug levels in the actual plasma and brain tumor tissue were measured using dialysis for 16 h to reach equilibrium. The mean of fraction unbound values determined in five patient samples was calculated.

Compound: Cc1nc2c(F)cc(-c3nc(Nc4ccc(CN5CCNCC5)cn4)ncc3F)cc2n1C(C)C [M2]
- Freeze-thaw stability, Accuracy ([1]; HQC 400.0 nM): 101.3%
- Freeze-thaw stability, Mean concentration ([1]; HQC 400.0 nM): 405.1 nM
- Freeze-thaw stability, Difference ([1]; HQC 400.0 nM): −6.8%
- Freeze-thaw stability, Accuracy ([1]; LQC 0.6 nM): 98.3%
- Freeze-thaw stability, Mean concentration ([1]; LQC 0.6 nM): 0.590 nM
- Freeze-thaw stability, Difference ([1]; LQC 0.6 nM): −9.4%
- Benchtop stability, Accuracy ([1]; HQC 400.0 nM): 97.0%
- Benchtop stability, Mean concentration ([1]; HQC 400.0 nM): 388.2 nM
- Benchtop stability, Difference ([1]; HQC 400.0 nM): −5.9%
- Benchtop stability, Accuracy ([1]; LQC 0.6 nM): 102.4%
- Benchtop stability, Mean concentration ([1]; LQC 0.6 nM): 0.614 nM
- Benchtop stability, Difference ([1]; LQC 0.6 nM): 6.9%
- Processed sample stability, Accuracy ([1]; HQC 400.0 nM): 100.2%
- Processed sample stability, Mean concentration ([1]; HQC 400.0 nM): 400.9 nM
- Processed sample stability, Difference ([1]; HQC 400.0 nM): −2.8%
- Processed sample stability, Accuracy ([1]; LQC 0.6 nM): 105.4%
- Processed sample stability, Mean concentration ([1]; LQC 0.6 nM): 0.632 nM
- Processed sample stability, Difference ([1]; LQC 0.6 nM): 10.0%
- Autosampler stability (5 °C), Accuracy ([1]; HQC 400.0 nM): 105.4%
- Autosampler stability (5 °C), Mean concentration ([1]; HQC 400.0 nM): 421.6 nM
- Autosampler stability (5 °C), Difference ([1]; HQC 400.0 nM): 6.2%
- Autosampler stability (5 °C), Accuracy ([1]; LQC 0.6 nM): 102.4%
- Autosampler stability (5 °C), Mean concentration ([1]; LQC 0.6 nM): 0.615 nM
- Autosampler stability (5 °C), Difference ([1]; LQC 0.6 nM): 13.5%
- Long-term stability (−20 °C), Accuracy ([1]; HQC 400.0 nM): 103.4%
- Long-term stability (−20 °C), Mean concentration ([1]; HQC 400.0 nM): 413.6 nM
- Long-term stability (−20 °C), Difference ([1]; HQC 400.0 nM): −4.8%
- Long-term stability (−20 °C), Accuracy ([1]; LQC 0.6 nM): 98.3%
- Long-term stability (−20 °C), Mean concentration ([1]; LQC 0.6 nM): 0.590 nM
- Long-term stability (−20 °C), Difference ([1]; LQC 0.6 nM): −9.5%
- fraction unbound at 16 h ([2]; pH 7.4, human brain homogenate spiked at 20 and 200 nM, 16 h equilibrium dialysis, read-out: Fraction unbound (fu), Brain): 0.008
- Plasma protein binding compared to binding to brain tissue components (ratio) ([2]; spiked pooled human plasma vs human brain homogenate): at least 6.5 fold
- concentration at 6 day (intra-operative) ([3]; read-out: Level in CSF (range)): 1.8 to 30.4 nM
- concentration at 6 day (intra-operative) ([3]; read-out: Median level in CSF): 11.7 nM
- Freeze-thaw stability, Accuracy ([4]; HQC 400.0 nM): 106%
- Freeze-thaw stability, Mean concentration ([4]; HQC 400.0 nM): 424.2 nM
- Freeze-thaw stability, Difference ([4]; HQC 400.0 nM): 5.8%
- Freeze-thaw stability, Accuracy ([4]; LQC 0.6 nM): 105.3%
- Freeze-thaw stability, Mean concentration ([4]; LQC 0.6 nM): 0.632 nM
- Freeze-thaw stability, Difference ([4]; LQC 0.6 nM): 5.8%
- Benchtop stability, Accuracy ([4]; HQC 400.0 nM): 103.8%
- Benchtop stability, Mean concentration ([4]; HQC 400.0 nM): 415.0 nM
- Benchtop stability, Difference ([4]; HQC 400.0 nM): 1.1%
- Benchtop stability, Accuracy ([4]; LQC 0.6 nM): 92.2%
- Benchtop stability, Mean concentration ([4]; LQC 0.6 nM): 0.553 nM
- Benchtop stability, Difference ([4]; LQC 0.6 nM): −1.7%
- Processed sample stability, Accuracy ([4]; HQC 400.0 nM): 100.6%
- Processed sample stability, Mean concentration ([4]; HQC 400.0 nM): 402.2 nM
- Processed sample stability, Difference ([4]; HQC 400.0 nM): 0.7%
- Processed sample stability, Accuracy ([4]; LQC 0.6 nM): 95.5%
- Processed sample stability, Mean concentration ([4]; LQC 0.6 nM): 0.573 nM
- Processed sample stability, Difference ([4]; LQC 0.6 nM): 3.6%
- Autosampler stability (5 °C), Accuracy ([4]; HQC 400.0 nM): 97.7%
- Autosampler stability (5 °C), Mean concentration ([4]; HQC 400.0 nM): 390.9 nM
- Autosampler stability (5 °C), Difference ([4]; HQC 400.0 nM): −0.2%
- Autosampler stability (5 °C), Accuracy ([4]; LQC 0.6 nM): 96.8%
- Autosampler stability (5 °C), Mean concentration ([4]; LQC 0.6 nM): 0.581 nM
- Autosampler stability (5 °C), Difference ([4]; LQC 0.6 nM): 4.8%
- Long-term stability (−20 °C), Accuracy ([4]; HQC 400.0 nM): 109.2%
- Long-term stability (−20 °C), Mean concentration ([4]; HQC 400.0 nM): 437.0 nM
- Long-term stability (−20 °C), Difference ([4]; HQC 400.0 nM): 5.6%
- Long-term stability (−20 °C), Accuracy ([4]; LQC 0.6 nM): 99.9%
- Long-term stability (−20 °C), Mean concentration ([4]; LQC 0.6 nM): 0.6 nM
- Long-term stability (−20 °C), Difference ([4]; LQC 0.6 nM): −3.1%
- fraction unbound at 16 h ([5]; human, plasma of five GBM patients, read-out: Fraction unbound (fu), Plasma (patients)): 0.045
- fraction unbound at 16 h ([5]; pooled human plasma spiked at 20 and 200 nM, read-out: Fraction unbound (fu), Plasma (pooled)): 0.052
